Measurements as given in article PMC5936713, “Structural and functional studies of Spr1654: an essential aminotransferase in teichoic acid biosynthesis in Streptococcus pneumoniae” (Open Biology, 2018).
Blank lines part the entries; values can stand above or below the molecule they belong to.

Assays:
Spr1654 [1] = biological target: T1, Spr1654 (Streptococcus pneumoniae, UniProt A0A0H2URM1); assay: transamination half-reaction, PLP ([…] nm) to PMP ([…] nm) absorbance; assay type: biochemical; conditions: 0.5 mM L-glutamate, Spr1654/PLP 0.9 mg/ml, 50 mM MES pH 6.6, 200 mM NaCl, 25 °C; amino donor
T1 construct: gene SP_1837; full-length, C-terminal His6 tag (pET-23b), expressed in E. coli T7 Express; homodimer; residues Tyr4-Thr404 seen in crystals

Spr1654 [2] = biological target: T1, Spr1654; assay: X-ray crystal structure, […] Å; absorption spectroscopy ([…] nm); assay type: binding; conditions: covalent; internal aldimine with Lys199; 1 mM PLP preincubated, pH 7.5
Spr1654 [3] = biological target: T1, Spr1654; assay: X-ray crystal structure, […] Å; assay type: binding; conditions: PMP formed by adding L-glutamate to the PLP complex before crystallization; active site
[4] = biological target: Spr1654 aminotransferase from Streptococcus pneumoniae, full length with C-terminal poly-histidine (Streptococcus pneumoniae) (UniProt Q8DNL6); assay: SEC; Superdex200 Increase 10/300 GL gel filtration, 20 mM Tris-HCl pH 7.5, 200 mM NaCl, 4°C; oligomeric state from the elution profile

Molecule: N[C@@H](CCC(=O)O)C(=O)O [E, L-glutamate]
transamination half-reaction, PLP (420 nm) to PMP (330 nm) absorbance (Spr1654 [1]): Spr1654 is able to deaminate L-glutamate in the first half-reaction of transamination with high efficiency

Molecule: Cc1ncc(COP(=O)(O)O)c(C=O)c1O [PLP]
X-ray crystal structure, 2.2 Å; absorption spectroscopy (420 nm) (Spr1654 [2]): Clear electron density confirms the formation of a covalent bond between PLP and residue Lys199

Molecule: Cc1ncc(COP(=O)(O)O)c(CN)c1O [PMP]
X-ray crystal structure, 2.4 Å (Spr1654 [3]): In the crystal structure of the Spr1654/PMP complex, the phosphate group serves as the main anchor

stoichiometry N [4]: 2
Molecule: Spr1654 aminotransferase from Streptococcus pneumoniae, full length with C-terminal poly-histidine (from UniProt Q8DNL6 1-417) (enzyme)
